Values of other authors, collected in US20060025476A1, “Use of methyl pyruvate for the purpose of reducing weight gain in mammals” (priority 2004, published 2006).
Where two headings read alike, the source gives them in different places. Blank lines part the entries; values can stand above or below the molecule they belong to.

How the values were obtained:
[1] = test system: fetal rat brown adipocyte primary cultures
[2] = test system: LXR
[3] = test system: porcine carotid artery strips
[4] = test system: UCP-1 mRNA expression; details: 4-5 h, basal or rosiglitazone-treated cells
[5] = target: T1, PPAR-alpha (Rattus norvegicus, UniProt P37230); design: from tissue; details: control and high-fat-fed rats
T1 sequence (P37230 1-468): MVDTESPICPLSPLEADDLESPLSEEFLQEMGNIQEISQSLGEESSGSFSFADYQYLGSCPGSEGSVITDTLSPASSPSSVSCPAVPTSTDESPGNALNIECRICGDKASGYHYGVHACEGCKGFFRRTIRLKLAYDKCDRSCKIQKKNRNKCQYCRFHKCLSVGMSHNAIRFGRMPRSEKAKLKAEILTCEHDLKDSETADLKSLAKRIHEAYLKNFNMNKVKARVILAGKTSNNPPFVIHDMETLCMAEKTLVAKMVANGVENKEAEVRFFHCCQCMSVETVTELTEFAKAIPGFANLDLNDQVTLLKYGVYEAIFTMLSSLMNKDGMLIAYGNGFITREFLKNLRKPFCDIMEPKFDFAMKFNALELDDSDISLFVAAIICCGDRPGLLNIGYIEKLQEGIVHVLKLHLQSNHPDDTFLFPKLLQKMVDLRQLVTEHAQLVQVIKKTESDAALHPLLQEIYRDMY

[6] = target: T1, PPAR-alpha; design: from tissue; host or cells: rat gastrocnemius muscle, in vivo; details: gastrocnemius muscle, feeding
[7] = test system: guinea-pig cerebral cortical synaptosomes
[8] = target: T2, K(ATP) channels (Homo sapiens, UniProt Q09428+Q14654)
T2 construct: endogenous in cells; host or cells: pancreatic beta-cells

[9] = test system: pancreatic beta-cells
[10] = test system: whole islets; details: 5 mM
[11] = test system: pancreatic islets; details: NAD(P)H imaging with LipDH autofluorescence
[12] = test system: isolated rat pancreatic islets
[13] = test system: Jurkat T-lymphocyte mitochondria
[14] = test system: pancreatic beta-cells; remark: listed apart in the source
[15] = test system: isolated beta-cell mitochondria; details: accumulation of ATP in medium, in combination with glutamate
[16] = test system: isolated rat pancreatic islets; details: compared with pyruvate
[17] = test system: porcine carotid arteries; details: added to amino-oxyacetic acid
[18] = test system: Na(+)-K(+)-ATPase; details: 10 microM
[19] = test system: PPARa/g; details: high-fat-fed rats

T2 sequence (Q14654 whole entry): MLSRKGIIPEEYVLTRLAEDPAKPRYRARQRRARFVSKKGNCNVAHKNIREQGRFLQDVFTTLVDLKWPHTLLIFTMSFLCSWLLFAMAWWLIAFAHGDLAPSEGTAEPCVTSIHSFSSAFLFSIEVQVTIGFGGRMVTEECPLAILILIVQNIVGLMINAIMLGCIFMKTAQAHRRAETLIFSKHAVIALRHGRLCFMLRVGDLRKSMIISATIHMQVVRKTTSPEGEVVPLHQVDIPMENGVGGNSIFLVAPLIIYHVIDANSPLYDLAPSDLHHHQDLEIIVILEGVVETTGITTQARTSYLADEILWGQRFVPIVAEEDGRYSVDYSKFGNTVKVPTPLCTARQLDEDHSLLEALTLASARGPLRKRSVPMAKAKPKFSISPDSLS
T2 sequence (Q09428 whole entry): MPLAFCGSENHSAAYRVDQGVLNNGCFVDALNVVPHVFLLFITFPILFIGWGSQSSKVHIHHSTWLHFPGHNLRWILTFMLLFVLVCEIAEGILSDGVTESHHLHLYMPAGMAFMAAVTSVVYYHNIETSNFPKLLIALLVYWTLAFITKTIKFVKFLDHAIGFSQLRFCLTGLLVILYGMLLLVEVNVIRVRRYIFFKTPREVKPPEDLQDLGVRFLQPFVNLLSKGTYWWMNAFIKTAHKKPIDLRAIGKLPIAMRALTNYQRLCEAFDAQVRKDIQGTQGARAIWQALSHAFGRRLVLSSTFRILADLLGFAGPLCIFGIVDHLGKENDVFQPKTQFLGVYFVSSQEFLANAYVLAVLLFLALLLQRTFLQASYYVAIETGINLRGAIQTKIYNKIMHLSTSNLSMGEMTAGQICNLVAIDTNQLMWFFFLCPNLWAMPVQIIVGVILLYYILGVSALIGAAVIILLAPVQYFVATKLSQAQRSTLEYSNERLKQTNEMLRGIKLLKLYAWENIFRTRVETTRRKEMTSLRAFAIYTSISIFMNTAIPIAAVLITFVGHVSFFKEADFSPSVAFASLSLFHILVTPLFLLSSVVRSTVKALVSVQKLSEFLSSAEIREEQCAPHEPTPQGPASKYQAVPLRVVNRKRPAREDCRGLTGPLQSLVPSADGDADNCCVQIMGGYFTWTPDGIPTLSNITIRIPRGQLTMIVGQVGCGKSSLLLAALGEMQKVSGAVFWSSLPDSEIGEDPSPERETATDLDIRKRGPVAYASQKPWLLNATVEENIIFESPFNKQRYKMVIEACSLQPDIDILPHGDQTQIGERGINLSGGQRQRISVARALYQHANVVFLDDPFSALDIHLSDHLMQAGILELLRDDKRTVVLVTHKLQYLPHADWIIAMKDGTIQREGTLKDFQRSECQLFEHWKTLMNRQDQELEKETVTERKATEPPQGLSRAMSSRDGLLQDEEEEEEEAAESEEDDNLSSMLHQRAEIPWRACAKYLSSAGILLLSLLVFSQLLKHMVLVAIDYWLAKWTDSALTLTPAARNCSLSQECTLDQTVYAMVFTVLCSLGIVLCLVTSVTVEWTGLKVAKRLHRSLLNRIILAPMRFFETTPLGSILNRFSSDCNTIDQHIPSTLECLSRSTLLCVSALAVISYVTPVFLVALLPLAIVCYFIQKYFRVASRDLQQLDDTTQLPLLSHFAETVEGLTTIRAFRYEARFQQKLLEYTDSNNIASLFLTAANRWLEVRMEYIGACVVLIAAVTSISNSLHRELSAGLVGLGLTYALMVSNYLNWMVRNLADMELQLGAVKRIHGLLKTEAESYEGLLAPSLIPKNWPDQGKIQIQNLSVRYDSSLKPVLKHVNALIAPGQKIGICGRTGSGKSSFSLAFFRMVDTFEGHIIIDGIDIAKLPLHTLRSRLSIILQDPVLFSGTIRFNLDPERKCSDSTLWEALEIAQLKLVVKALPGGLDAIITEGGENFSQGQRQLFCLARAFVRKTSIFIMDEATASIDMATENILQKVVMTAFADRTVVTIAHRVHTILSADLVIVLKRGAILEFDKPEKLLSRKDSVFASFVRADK

p44/p42 and p38 mitogen-activated protein kinase activation [1]: induce
SMILES: CC1=C(/C=C/C(C)=C\C=C\C(C)=C\C(=O)O)C(C)(C)CCC1 [9-cis-retinoic acid]

SMILES: CC(C)CC[C@@H](O)[C@@H](C)[C@H]1CC[C@H]2[C@@H]3CC=C4C[C@@H](O)CC[C@]4(C)[C@H]3CC[C@]12C [22 (R)-hydroxycholesterol]
suppressive effects of LXRs on PPARa-induced PPRE-luciferase activity [2]: dose dependently enhanced

SMILES: [Cl-].[K+] [KCl]
change in resting tone ([3]; 10 mM KCl, glucose-PSS): -0.8 ± 0.8 g | change in resting tone (increased contraction) ([3]; 10 mM KCl, lactate-PSS): 1.5 ± 0.7 g | change in resting tone ([3]; 10 mM KCl, pyruvate-PSS): -2.1 ± 0.8 g

SMILES: COc1cccc(-c2cc(=O)c3ccccc3o2)c1N [PD98059]
negative effect of TNF-alpha on UCP-1 mRNA expression [4]: reversed

suppressive effects of LXRs on PPARa-induced PPRE-luciferase activity [2]: dose dependently enhanced
SMILES: O=S(=O)(c1ccccc1)N(CC(F)(F)F)c1ccc(C(O)(C(F)(F)F)C(F)(F)F)cc1 [T0901317]

hepatic PDK4 protein [5]: significantly increased | pyruvate dehydrogenase kinase activity, PDK4 protein and PDK4 mRNA [6]: large increases
SMILES: Cc1cccc(Nc2cc(Cl)nc(SCC(=O)O)n2)c1C [WY14,643]

p44/p42 and p38 mitogen-activated protein kinase activation [1]: induce
SMILES: CC1=C(/C=C/C(C)=C/C=C/C(C)=C/C(=O)O)C(C)(C)CCC1 [all-trans-retinoic acid]

SMILES: NOCC(=O)O [amino-oxyacetic acid]
negative shift in the cytosolic NAD+/NADH redox potential [7]: 26 mV

SMILES: CC(O)C(=O)O (stereo not drawn) [lactate]
increase of O2 consumption ([3]; 10 mm in PSS): without effect

block of KATP [8]: block | single-channel currents ([8]; inside-out patches): blocked | K(ATP) current ([8]; standard whole-cell configuration): inhibited
SMILES: COC(=O)C(C)=O [methyl pyruvate]
increase in insulin secretion relative to that induced by glucose [9]: 6 fold | concentration of maximal effect on insulin secretion ([9]; absence of glucose): 5 mM | ATP/ADP ratio in whole islets [10]: no effect | NADH and NADPH response [11]: robust NADH and NADPH response | insulin release ([12]; D-glucose 16.7 mM and/or methyl ester 20.0 mM): negative insulinotropic action | insulin release ([12]; D-glucose 2.8 to 8.3 mM, ester not exceeding 10.0 mM): positive insulinotropic action | cation current across the inner membrane of mitochondria [13]: directly inhibited | ATP production or ATP/ADP ratio [14]: did not influence | NAD(P)H autofluorescence [14]: slightly decreased | [Ca2+]i [14]: sustained rise | depolarization of beta-cell membrane potential ([14]; 5-20 mM): depolarized the beta-cell in a concentration-dependent manner | cytosolic free Ca(2+) concentration ([14]; after an initial decrease): increased | electrical activity ([14]; presence of 0.5 mM glucose): elicited electrical activity | ATP production with glutamate [15]: higher than that induced by pyruvate/glutamate | efficiency in intramitochondrial metabolism (amino acid conversion, inhibition of glucose utilization, 14CO2 output) [16]: more efficient than pyruvate | mitochondrial alkalinization [16]: more marked mitochondrial alkalinization than pyruvate

SMILES: CCCCCCCC(=O)O [octanoate]
adverse energetic effects of malate-aspartate shuttle inhibition [17]: normalized

SMILES: C[C@@H]1O[C@@H](O[C@H]2C[C@@H](O)[C@]3(CO)[C@H]4[C@H](O)C[C@]5(C)[C@@H](C6=CC(=O)OC6)CC[C@]5(O)[C@@H]4CC[C@]3(O)C2)[C@H](O)[C@H](O)[C@H]1O [ouabain]
glycolysis and lactate production [18]: decreased

SMILES: CCO[C@@H](Cc1ccc(OCCc2ccc(OS(C)(=O)=O)cc2)cc1)C(=O)O [tesaglitazar]
diglyceride and long chain acyl coenzyme A in skeletal muscle [19]: decreased | hepatic triglyceride accumulation [19]: reduced | glucose infusion rate during hyperinsulinemic-euglycemic clamp ([19]; 7 d): increase
